According to publication PMC5799255, “Histone H5 is a potent Antimicrobial Agent and a template for novel Antimicrobial Peptides” (Scientific Reports, 2018):
Where two headings read alike, the source gives them in different places. Marks after values point to notes of the source that are not given here. Ends that are not written are not given here.

Columns and labels:
[1] = system: Listeria monocytogenes (ATCC 19112); conditions: preliminary peptide screen, peptide purities 50% to 81.9%, tested 1-64 µg/mL, broth microdilution, mean ± SD, n = 3
Procedure: (§1) Antimicrobial activity of histone H5 against a variety of Gram-positive and Gram-negative planktonic bacteria was evaluated using a broth microdilution assay.
(§2) The antimicrobial activity of these peptides against Gram-positive and Gram-negative planktonic bacteria was evaluated using broth microdilution assays.
(§3) The bacterial strains tested in this study were Gram-positive bacteria (Bacillus cereus (ATCC 11778), methicillin-sensitive Staphylococcus aureus (ATCC 6538), methicillin-resistant Staphylococcus aureus (ATCC 29247), Listeria monocytogenes (ATCC 19112), Enterococcus faecalis (clinical isolate) and vancomycin-resistant Enterococcus (ATCC 51299)) and Gram-negative bacteria Escherichia coli K12 (ATCC 29425), Escherichia coli (O157:H7), Pseudomonas aeruginosa (ATCC 15442) and Salmonella typhimurium (ATCC 1535)). Bacterial colonies from glycerol stocks were plated on LB agar plates (BHI agar plates for L. monocytogenes) and incubated overnight at 37 °C. Single colonies from these plates were grown in 3 mL of LB broth (BHI broth for L. monocytogenes) overnight at 37 °C and shaken at 250 rpm. […] The bacterial suspension was pelleted at 3,000 × g, 4 °C for 10 minutes and washed with PBS (twice), and then adjusted to 10^5–10^6 CFUs/mL in PBS.
(§4) Supplementary Information
(§5) Broth microdilution assay
(§6) The protocol for this step of the project was based on established methods22. Histone H5 or the peptides were dissolved in sterile water, pH 7.4, serially two-fold diluted and aliquoted in a 1:1 (v/v) ratio with bacteria. Kanamycin or ampicillin served as a positive control for inhibition, and sterile water (pH 7.4) as a negative control for inhibition. The tubes were then incubated for 3 hours at 37°C an d shaken at 200 rpm. Next, 100 µL of each tube and 100µL of LB broth (BHI broth for L. monocytogenes) was plated in wells of a 96-well microplate. The microplate was incubated in the EON microplate reader overnight at 206 oscillations/min and at 37°C. During this period, the EON microplate spectrophotometer and Gen5 data analysis software (BioTek, Winooski, VT, USA) were used to monitor the growth of bacteria by measuring the optical density at 600 nm every 30 minutes for 18 hours. The lowest protein concentration without visible bacterial growth was designated as the minimum inhibitory concentration (MIC). Bacteria (10 µL) from the wells at MIC, MIC x 2 and MIC x 3 concentrations of H5 were plated on LB agar (BHI agar for L. monocytogenes) and incubated at 37°C for 18 hours. The lowest concentration of histone H5 without a single colony was designated as the minimum bactericidal concentration (MBC).

[2] = system: Pseudomonas aeruginosa (ATCC 15442); conditions: preliminary peptide screen, peptide purities 50% to 81.9%, tested 1-64 µg/mL, broth microdilution, mean ± SD, n = 3
Procedure: as §1, §2, §3, §4, §5, §6

[3] = system: E. coli; set-up: method as in PMID 22723861, PMID 16978580; conditions: cited from earlier work
[4] = system: E. faecalis; set-up: method as in PMID 22723861, PMID 16978580; conditions: cited from earlier work
[5] = system: S. aureus; set-up: method as in PMID 22723861, PMID 16978580; conditions: cited from earlier work
[6] = system: P. aeruginosa; set-up: method as in PMID 22723861, PMID 16978580; conditions: cited from earlier work
[7] = system: P. aeruginosa biofilms; conditions: cited from earlier work
Description: (§7) L. monocytogenes and P. aeruginosa are major human pathogens that cause serious illnesses through foodborne and hospital-acquired infections, respectively. […] Moreover, an estimated 51,000 healthcare-associated infections leading to 440 deaths per year in the United States are caused by P. aeruginosa. Additionally, both pathogens have the ability to form biofilms, which enhances their persistence in unfavourable environ ...

[8] = system: L. monocytogenes biofilms; conditions: 6.8 µg/mL, 2 and 4 hours of treatment, cited from earlier work
Description: as §7

What does the source list for EMIAAAIRAEKSRGGSSRQS [H5(31–50)]?
MIC [1]: inactive; MIC ([1]; listed as H5 (31–50)): NI ^‡ (Non-inhibitory at the highest concentration tested (64 µg/mL)); MIC [2]: non-inhibitory; MIC ([2]; listed as H5 (31–50)): NI ^‡ (Non-inhibitory at the highest concentration tested (64 µg/mL))

What does the source list for “EMIAAAIRAEKSRGGSSRQSIQKYIKSHYK [H5(31–60)]”?
MIC [1]: inactive; MIC ([1]; listed as H5 (31–60)): NI ^‡ (Non-inhibitory at the highest concentration tested (64 µg/mL)); MIC [2]: non-inhibitory; MIC ([2]; listed as H5 (31–60)): NI ^‡ (Non-inhibitory at the highest concentration tested (64 µg/mL))

For “Human β-defensin-3: a human host defence antimicrobial peptide (GIINTLQKYYCRVRGGRCAVLSCLPKEEQIGKCSTRGRKCCRRKK; ends and bridges not checked; cysteine pairing not given here; UniProt P81534 23-67, looked up)”, which MIC [3] is on record?
Its MIC is 6 µg/mL.

What about the MIC [4] of the same substance?
The MIC was over 512 µg/mL.

And the MIC [5]?
Its MIC is 12 µg/mL.

And the MIC [6]?
The MIC was 13 µg/mL.

With LL-37 as the substance, how does the MBEC [7] read?
Its MBEC is 640 µg/mL.

What about the MBEC/MIC ratio [7] of the same substance?
Its MBEC/MIC ratio is 5–80.

Which MIC [1] does the source give for LSIRRLLAAGVLKQTKGVGA [H5(71–90)] here?
Its MIC is >64^† µg/mL.

And the MIC [2]?
The MIC was 26.7 ± 14.1 µg/mL.

Which results are given for “RVKASRRSASHPTYSEMIAAAIRAEKSRGG [H5(16–45)]”?
MIC [1]: inactive; MIC ([1]; listed as H5 (16–45)): NI ^‡ (Non-inhibitory at the highest concentration tested (64 µg/mL)); MIC [2]: non-inhibitory; MIC ([2]; listed as H5 (16–45)): NI ^‡ (Non-inhibitory at the highest concentration tested (64 µg/mL))

With VLKQTKGVGASGSFRLAKSD [H5(81–100)] as the substance, how does the MIC [1] read?
Its MIC is “inactive”.

And the MIC ([1]; listed as H5 (81–100))?
The MIC was “NI ^‡ (Non-inhibitory at the highest concentration tested (64 µg/mL))”.

And the MIC [2]?
The MIC was “non-inhibitory”.

What about the MIC ([2]; listed as H5 (81–100)) of the same substance?
Its MIC is “NI ^‡ (Non-inhibitory at the highest concentration tested (64 µg/mL))”.

With magainin II as the substance, how does the MBEC [7] read?
Its MBEC is over 640 µg/mL.

For “melittin: CAMP tested against P. aeruginosa biofilms in the literature”, which MBEC [7] is on record?
The MBEC was over 640 µg/mL.

Which results are given for paenibacterin?
disruption of established biofilms (in words) ([8]; biofilms developed statically at 30 °C): effective; disruption of established biofilms (in words) ([8]; stronger biofilms developed at 37 °C): not effective
